Measured values reported in patent US5554613A, “Heterocyclic derivatives” (Zeneca Limited, priority 1992, dated 1996).

How the values were obtained:
[1] = test system: de novo hepatic cholesterol synthesis; assay: Acute rat cholesterol synthesis assay (de novo hepatic cholesterol synthesis from 14C-acetate); format: in vivo; details: female rats, oral gavage, ip or iv dosing, [2-14C]-acetate ip after 1 hour
Method: (b) Ache rat cholesterol synthesis assay.
This is an acute in vivo test in the rat to measure de novo hepatic cholesterol synthesis from exogenously administered ^14 C-acetate.
Female rats (35-55 g) are housed in reverse lighting conditions (red light from 0200h-1400h) for a period of about 2 weeks prior to test. Animals are allowed free access to chow and drinking water throughout this period. At test, animals should weigh 125-150 g.
Test compounds may be administered by oral gavage, dissolved or suspended in 0.5% polysorbate, or by ip or iv dosing. Control animals receive vehicle alone. After 1 hour the rats are injected ip with 25 μCi [2-^14 C]-acetate (NEN DUPONT. specific activity, 45-60 mCi/mmol NEC-085H, or AMERSHAM specific activity, 50-60mCi/mmol CFA 14) in a volume of 0.25 ml saline (100 μCi/ml). After a further hour, rats are terminally anaesthetised with halothane and a blood sample obtained from the abdominal vena cava.
1 ml of plasma is lyophilised and then saponified in 2 ml ethanolic KOH (1 part 33% KOH, 9 parts ethanol) at 75° C. for 2 hours. After addition of an equal quantity of water, non-saponifiable lipids are extracted with two 5 ml volumes of hexane. The hexane extracts are evaporated to dryness and the residues dissolved in ethanol to determine cholesterol specific radioactivity. ED50 values can be determined in the standard way.

Squalene synthase = biological target: T1, Squalene synthase (Rattus norvegicus, UniProt Q02769); assay: Inhibition of Squalene synthase (formation of squalene from tritiated farnesyl pyrophosphate, rat liver microsomal protein); format: biochemical; details: at a concentration of 2.5 μM; rat liver microsomes
T1 construct: rat liver microsomal protein; from tissue; host or cells: rat liver microsomes
T1 sequence (Q02769 1-416): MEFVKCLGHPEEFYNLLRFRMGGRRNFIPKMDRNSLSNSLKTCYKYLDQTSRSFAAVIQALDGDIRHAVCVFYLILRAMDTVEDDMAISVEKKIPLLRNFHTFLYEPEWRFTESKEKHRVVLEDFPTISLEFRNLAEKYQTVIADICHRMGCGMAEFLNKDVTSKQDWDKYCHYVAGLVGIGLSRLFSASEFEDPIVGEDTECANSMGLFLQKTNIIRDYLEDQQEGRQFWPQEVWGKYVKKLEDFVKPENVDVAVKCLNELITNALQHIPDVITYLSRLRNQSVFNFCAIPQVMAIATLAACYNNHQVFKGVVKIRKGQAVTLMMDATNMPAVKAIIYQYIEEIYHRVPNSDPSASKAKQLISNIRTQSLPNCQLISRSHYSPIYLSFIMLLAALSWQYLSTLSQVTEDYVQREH
Method: (a) Inhibition of Squalene synthase
In this test, the ability of a compound to prevent the formation of squalene from a radioactive substrate (tritiated farnesyl pyrophosphate) is assessed.
The test compound is incubated at a concentration of […] in 200 μl of a buffered solution containing potassium phosphate (50 mM), MgCl2 (4.95 mM), KF (9.9 mM), NADPH (0.9 mM) and rat liver microsomal protein (20 μg). Rat liver microsomes are prepared by the method described in published European Patent Application No. 324,421 and stored in liquid nitrogen prior to assay. Assay vials are kept at 37° C. throughout the incubation.
The reaction is started with the addition of the substrate (1-[^3 H]-farnesyl pyrophosphate), final concentration 20 μM, and stopped after 15 minutes reaction time with the addition of 50 μl of 4% KOH. The reaction products are separated from unreacted substrate after application to a C-18 octadecyl 1 ccBond column (Analytichem Int product No. 617101). An aqueous fraction is eluted with 250 μl of 0.1M KOH. Squalene is then eluted with 1.0 ml 10% ethylacetate in hexane and radioactivity determined. The difference in radioactivity in the presence and absence of the test compound is used to determine the level of inhibition. […] The IC50 can then be determined from a plot of percentage inhibition against concentration of test compound.

SMILES | ED50 [1] | inhibition at 2.5 µM (Squalene synthase)
OC1(c2ccc(-c3ccccn3)cc2)CN2CCC1CC2 (stereo not drawn) [Example 2, 3-[4-(pyrid-2-yl)phenyl]quinuclidin-3-ol] | 14 mg/kg | 
OC1(c2ccc(-c3cncnc3)cc2)CN2CCC1CC2 (stereo not drawn) [Example 4, 3-[4-(pyrimidin-5-yl)phenyl]quinuclidin-3-ol] | 4.5 mg/kg | ~54%
